Measured values published in PMC5507300, “Antibacterial small molecules targeting the conserved TOPRIM domain of DNA gyrase” (PLoS ONE, 2017).
Values after ≈ are worked out from the molar mass of the structure shown. Like-named read-outs stand apart in the source and are kept apart here.

What was measured:
Type in all cases: cell-based
E. coli HS151 (ΔtolC) = assay: microbe, parasite or virus in culture; conditions: Escherichia coli
Text: (§1) E. coli HS151 (ΔtolC) has been described previously. […] E. coli BW25113 and the Keio gene deletion collection based on BW25113 [25] were obtained from Thermo Fisher Scientific (Waltham, MA) and described in [26]. The plasmid-borne FQ resistance determinant, qnrVC3 [27], was kindly provided by D. Hooper (Massachusetts General Hospital). […] MB2884 (E. coli) and CL15245 (K. pneumoniae) are clinical isolates from the Merck & Co., Inc., Kenilworth, NJ, USA, strain collection. S. aureus COL is a methicillin-resistant clinical isolate.
(§2) Compound doubling dilutions were prepared in 100% DMSO (Sigma Aldrich) and 2 μL of each dilution was transferred to a 96-well plate with lid (Thermo Scientific). Inoculum for all MIC testing was prepared using the BBL Prompt Inoculation System (Becton Dickinson, Franklin Lakes, NJ USA) as described by the manufacturer to produce a suspension of cells at approximately 1.5 x 10^8 colony forming units (CFU)/mL [34–36] and a further dilution (1:1000) was made into cation adjusted Mueller-Hinton broth (CAMH broth, Becton-Dickinson). One hundred μL of this inoculum were then transferred to each well of the 96-well plate containing diluted compound (above). Plates were covered and incubated overnight (18 hrs.) at 37°C.

[1] = tested on: A. baumannii ΔlpxC MB9796; assay: Broth microdilution MIC, A. baumannii MB9796; conditions: Acinetobacter baumannii
Text: (§3) E. coli HS151 (ΔtolC) has been described previously. Gyrase inhibitor-resistant isolates (GYR101-108) were derived by selection for spontaneous resistance to MRL-770 or MRL-423 (Fig 1) in E. coli HS151 as described below. E. coli BW25113 and the Keio gene deletion collection based on BW25113 [25] were obtained from Thermo Fisher Scientific (Waltham, MA) and described in [26]. The plasmid-borne FQ resistance determinant, qnrVC3 [27], was kindly provided by D. Hooper (Massachusetts General Hospital). MB9796 (A. baumannii) is a derivative of MB9797 (ATCC19606) lacking lipopolysaccharide. The efflux-defective P. aeruginosa strain MB5890 (CB398) is a derivative of MB5919 (PAO1). MB2884 (E. coli) and CL15245 (K. pneumoniae) are clinical isolates from the Merck & Co., Inc., Kenilworth, NJ, USA, strain collection. S. aureus COL is a methicillin-resistant clinical isolate.
as §2

[2] = tested on: A. baumanii MB9797 (ATCC19606); assay: Broth microdilution MIC, A. baumannii MB9797; conditions: Acinetobacter baumannii
Text: as §3, §2

S. aureus (MRSA) COL = assay: Broth microdilution MIC, S. aureus COL; conditions: Staphylococcus aureus, MRSA
Text: as §3, §2

[3] = tested on: E. coli GYR103 GyrB L446Q; assay: microbe, parasite or virus in culture; conditions: Escherichia coli
Text: as §3, §2
After the agar solidified, 5 μL of a saturated bacterial culture, grown in CAMH broth, were dispensed on the agar surface and allowed to dry at room temperature. […] To select for resistance, a 100 mm petri dish was filled with 25 mL CAMH agar containing 8 μg/mL MRL-770 or 0.5 μg/mL MRL-423 (Fig 1). The cells in 1 mL of an overnight culture of E. coli HS151 (~10^9 CFU/mL) were concentrated by centrifugation and spread onto the surface of an MRL-770 or MRL-423 containing plate. After the surface dried at room temperature the plate was incubated at 37°C overnight. Any colonies that arose were counted and an approximate frequency of resistance was calculated after confirming resistance by restreaking on media containg compound as well as measuring MICs (see Results). Genomic DNA from the parent strain (E. coli HS151) and purified (restreaked) resistant isolates was obtained with a GeneJET genomic DNA purification kit according to the manufacturer’s instructions (Fisher Scientific). Assembled whole genome mutant sequences were then compared to the parent strain and polymorphisms were identified as described.

[4] = tested on: E. coli GYR108 GyrB L470I/V467L; assay: microbe, parasite or virus in culture; conditions: Escherichia coli
Text: as §1, §2
(§4) After the agar solidified, 5 μL of a saturated bacterial culture, grown in CAMH broth, were dispensed on the agar surface and allowed to dry at room temperature. […] After the surface dried at room temperature the plate was incubated at 37°C overnight. […] Genomic DNA from the parent strain (E. coli HS151) and purified (restreaked) resistant isolates was obtained with a GeneJET genomic DNA purification kit according to the manufacturer’s instructions (Fisher Scientific). Assembled whole genome mutant sequences were then compared to the parent strain and polymorphisms were identified as described.

E. coli CIP101 GyrA D87N = assay: microbe, parasite or virus in culture; conditions: Escherichia coli
Protocol: as §2

E. coli HS151 (qnrVC) = assay: Broth microdilution MIC, E. coli HS151 (qnrVC); conditions: Escherichia coli
Text: as §3, §2

E. coli BW25113 ΔtolC = assay: Broth microdilution MIC, E. coli BW25113 ΔtolC; conditions: Escherichia coli
Text: as §3, §2
The yacG deletion allele from the Keio collection was amplified by PCR (primers: […] and […]) and moved to BW25113 ΔtolC as described below. The E. coli strain BW25113 ΔtolC containing pKD46 [25] was used to inoculate SOB (Invitrogen)/0.2% w/v arabinose (Sigma Aldrich)/ampicillin (100 μg/mL) and grown overnight at 30°C. The overnight culture was then diluted 1/40 into 20 mL fresh SOB/0.2% w/v arabinose/ampicillin (100 μg/mL) and grown at 30°C while shaking for ~3 hrs until OD600 = 0.5. […]

[5] = tested on: E. coli BW25113 ΔtolC/ΔyacG; assay: Broth microdilution MIC, E. coli BW25113 ΔtolC/ΔyacG; conditions: Escherichia coli, BW25113
Protocol: as §2
The yacG deletion allele from the Keio collection was amplified by PCR (primers: […] and […]) and moved to BW25113 ΔtolC as described below. The E. coli strain BW25113 ΔtolC containing pKD46 [25] was used to inoculate SOB (Invitrogen)/0.2% w/v arabinose (Sigma Aldrich)/ampicillin (100 μg/mL) and grown overnight at 30°C. The overnight culture was then diluted 1/40 into 20 mL fresh SOB/0.2% w/v arabinose/ampicillin (100 μg/mL) and grown at 30°C while shaking for ~3 hrs until OD600 = 0.5. Cells were pelleted by centrifugation at 4000 rpm for 10 min, washed with 40 mL ice cold sterile, distilled H2O, then 3 x 1 mL ice cold 10% glycerol followed by centrifugation at 5000 g for 3 minutes. The pellet was resuspended in 100 μL of 10% glycerol (1/200 of starting culture). For transformation, 5 μL of gel purified PCR product was added to 50 μL cells, mixed, and immediately electroporated in a 0.2 cm gap cuvette at 2.5kV, 25 μF, 200 Ω (BioRad, Hercules, CA USA). Electroporated cells were recovered in 1 mL SOC (Invitrogen)/0.2% arabinose at 37°C for 2 hours with shaking. Cells in amounts of 50 and 950 μL were then plated on LB agar supplemented with kanamycin (25 μg/mL) and incubated overnight at 37°C. Correct gene replacements were verified by PCR.

[6] = tested on: DNA synthesis in E. coli JL553; assay: Macromolecule synthesis labeling; conditions: E. coli JL553, 25 min exposure, labeled precursor incorporation
Protocol: Macromolecule synthesis profiling was conducted as described by Montgomery, et al. with minor modifications. E. coli strain JL553 (tolC, lysE) was used to measure inhibition of DNA, RNA, protein, peptidoglycan and phospholipid biosynthesis while E. coli MB5500 (lpxC [envA1], galE; Merck & Co., Inc., Kenilworth, NJ, USA, strain collection) was used to measure inhibition of lipopolysaccharide biosynthesis. Radioisotope labeled precursors were used at the following final concentrations [2-^14C]-thymidine (2.5 μCi/mL), [^14C(U)]-uridine (0.5 μCi/mL), L-[4, 5-^3H]-leucine (5 μCi/mL), [2-^3H]-glycerol (2 μCi/mL), [^3H]-diaminopimelic acid (3 μCi/mL), D-[1-^14C]-galactose (0.5 μCi/mL). Compound concentrations (3-fold serial dilutions) were chosen to place the minimum inhibitory concentration (see below) near the center of the dose range. Labeled cultures were incubated with compound for 25 min; stopped with trichloroacetic acid, filtered and incorporation was measured as described. Percent inhibition of incorporation was calculated relative to an untreated control culture for each labeled precursor and plotted with GraphPad Prism.

E. coli HS151 = assay: In vitro time-dependent bactericidal study; conditions: E. coli HS151; at the 4 hour time point
Protocol: A culture of E. coli HS151 in CAMH broth was grown overnight (18 hrs.) at 37°C, diluted 1:10,000 in 200 mL of fresh CAMH broth and further incubated for 1 hour at 37°C with shaking. A time-zero sample was then removed and 20 mL portions of the remaining culture were transferred into 125 mL vented flasks to which were added MRL-1082 or control antibiotics, at the indicated concentrations. These flasks were then incubated at 37°C with shaking (70 rpm). Samples were withdrawn at the indicated times, plated on blood agar (trypticase soy agar with 5% sheep blood, Becton-Dickinson) and, following overnight growth at 37°C, colonies were counted to determine CFU/mL.

[7] = tested on: P. aeruginosa(effluxΔ) MB5890; assay: microbe, parasite or virus in culture; conditions: Pseudomonas aeruginosa
Text: as §1, §2

[8] = tested on: E. coli MB2884 (clinical isolate); assay: Broth microdilution MIC, E. coli MB2884; conditions: Escherichia coli; Table 1; MB2884 E. coli; read-out: MIC
Text: as §1, §2

[9] = tested on: P. aeruginosa MB5919 (PAO1); assay: Broth microdilution MIC, P. aeruginosa MB5919; conditions: Pseudomonas aeruginosa, Table 1, MB5919 P. aeruginosa, read-out: MIC
Text: as §1, §2

[10] = tested on: K. pneumoniae CL15245 (clinical isolate); assay: Broth microdilution MIC, K. pneumoniae CL15245; conditions: Klebsiella pneumoniae; Table 1; CL15245 K. pneumoniae; read-out: MIC
Text: as §1, §2

[11] = tested on: E. coli GYR101 GyrB F513L; assay: microbe, parasite or virus in culture; conditions: Escherichia coli
Text: as §1, §2, §4

[12] = tested on: E. coli GYR102 GyrB E466EV; assay: microbe, parasite or virus in culture; conditions: Escherichia coli
Text: as §1, §2, §4

[13] = tested on: E. coli GYR104 GyrB L470I; assay: microbe, parasite or virus in culture; conditions: Escherichia coli
Text: as §1, §2, §4

[14] = tested on: E. coli GYR105 GyrB T469K; assay: microbe, parasite or virus in culture; conditions: Escherichia coli
Text: as §1, §2, §4

[15] = tested on: E. coli GYR106 GyrB F513L/A468V; assay: microbe, parasite or virus in culture; conditions: Escherichia coli
Text: as §1, §2, §4

[16] = tested on: E. coli GYR107 GyrB F513L/L422V; assay: microbe, parasite or virus in culture; conditions: Escherichia coli
Text: as §1, §2, §4

[17] = Table 1, MB9797 A. baumanii, read-out: MIC

O=C(O)c1cn(C2CC2)c2cc(N3CCNCC3)c(F)cc2c1=O [ciprofloxacin]
MIC (E. coli HS151 (ΔtolC); Table 3, HS151): 0.004 µg/mL (≈ 0.0121 µM)
MIC [1]: 0.0625 µg/mL (≈ 0.189 µM)
MIC [2]: > 0.125 µg/mL
MIC (S. aureus (MRSA) COL): > 0.125 µg/mL
MIC [3]: 0.0039 µg/mL (≈ 0.0118 µM)
MIC [4]: 0.0039 µg/mL (≈ 0.0118 µM)
MIC (E. coli CIP101 GyrA D87N): 0.0312 µg/mL (≈ 0.0943 µM)
MIC (E. coli HS151 (qnrVC)): 0.03 µg/mL (≈ 0.0905 µM)
MIC (E. coli BW25113 ΔtolC): 0.004 µg/mL (≈ 0.0121 µM)
MIC [5]: 0.004 µg/mL (≈ 0.0121 µM)
inhibition of macromolecule synthesis [6]: Dose-dependent, selective inhibition of DNA synthesis
culture viability, below lower limit of quantitation (E. coli HS151): < 20 CFU/mL

CO[C@@H]1[C@@H](OC(N)=O)[C@@H](O)[C@H](Oc2ccc3c(O)c(NC(=O)c4ccc(O)c(CC=C(C)C)c4)c(=O)oc3c2C)OC1(C)C [novobiocin]
MIC (E. coli HS151 (ΔtolC); Fig 4 legend, E. coli HS151): 2 µg/mL (≈ 3.26 µM)
MIC (E. coli HS151 (ΔtolC); Table 1, HS151 E. coli ΔtolC): 2 µg/mL (≈ 3.26 µM)
MIC (E. coli HS151 (ΔtolC); Table 2, HS151, GyrB mutation none): 2 µg/mL (≈ 3.26 µM)
MIC (E. coli HS151 (ΔtolC); Table 3, HS151): 2 µg/mL (≈ 3.26 µM)
MIC [7]: 64 µg/mL (≈ 104 µM)
MIC [8]: > 64 µg/mL
MIC [1]: < 0.0625 µg/mL
MIC [2, 17]: 8 µg/mL (≈ 13.1 µM)
MIC [9]: 64 µg/mL (≈ 104 µM)
MIC [10]: > 64 µg/mL
MIC (S. aureus (MRSA) COL): 0.125 µg/mL (≈ 0.204 µM)
MIC [3]: 2 µg/mL (≈ 3.26 µM)
MIC [11]: 2 µg/mL (≈ 3.26 µM)
MIC [12]: 1 µg/mL (≈ 1.63 µM)
MIC [13]: 2 µg/mL (≈ 3.26 µM)
MIC [14]: 2 µg/mL (≈ 3.26 µM)
MIC [15]: 2 µg/mL (≈ 3.26 µM)
MIC [16]: 2 µg/mL (≈ 3.26 µM)
MIC [4]: 2 µg/mL (≈ 3.26 µM)
MIC (E. coli CIP101 GyrA D87N): 2 µg/mL (≈ 3.26 µM)
MIC (E. coli HS151 (qnrVC)): 2 µg/mL (≈ 3.26 µM)
MIC (E. coli BW25113 ΔtolC): 2 µg/mL (≈ 3.26 µM)
MIC [5]: 2 µg/mL (≈ 3.26 µM)

CO[C@H]1/C=C/O[C@@]2(C)Oc3c(C)c(O)c4c(O)c(c(/C=N/N5CCN(C)CC5)c(O)c4c3C2=O)NC(=O)/C(C)=C\C=C\[C@H](C)[C@H](O)[C@@H](C)[C@@H](O)[C@@H](C)[C@H](OC(C)=O)[C@@H]1C [rifampicin]
MIC [7]: 32 µg/mL (≈ 38.9 µM)
MIC [8]: 8 µg/mL (≈ 9.72 µM)
MIC [1]: < 0.0625 µg/mL
MIC [2, 17]: 2 µg/mL (≈ 2.43 µM)
MIC [9]: 32 µg/mL (≈ 38.9 µM)
MIC [10]: 32 µg/mL (≈ 38.9 µM)
MIC (S. aureus (MRSA) COL): < 0.0625 µg/mL
MIC (E. coli CIP101 GyrA D87N): 8 µg/mL (≈ 9.72 µM)
